Reference: patent US10927123B2, “Modulators of the beta-3 adrenergic receptor useful for the treatment or prevention of disorders related thereto” (Arena Pharmaceuticals, Inc., priority 2016, dated 2021)

These compounds were tested against Beta-3 Adrenergic Receptor (Homo sapiens (Human), UniProt P13945) (assay: HTRF cAMP antagonist assay (IC50 determination)). Conditions: CHO-K1 cells stably expressing recombinant receptor; antagonism of isoproterenol at EC90; cAMP readout.
Format: cell-based
Procedure, shortened: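 Antagonist mode: isoproterenol at its predetermined EC90 added after compound to recombinant CHO-K1 cells in IBMX-containing PBS, 1 h, room temperature. Compounds tested as 5-fold, 10-point dilutions, top final typically 10 or 100 μM. HTRF signal converted to cAMP via standard curve, giving IC50.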

Sequence of Beta-3 Adrenergic Receptor (P13945 whole entry, species assumed): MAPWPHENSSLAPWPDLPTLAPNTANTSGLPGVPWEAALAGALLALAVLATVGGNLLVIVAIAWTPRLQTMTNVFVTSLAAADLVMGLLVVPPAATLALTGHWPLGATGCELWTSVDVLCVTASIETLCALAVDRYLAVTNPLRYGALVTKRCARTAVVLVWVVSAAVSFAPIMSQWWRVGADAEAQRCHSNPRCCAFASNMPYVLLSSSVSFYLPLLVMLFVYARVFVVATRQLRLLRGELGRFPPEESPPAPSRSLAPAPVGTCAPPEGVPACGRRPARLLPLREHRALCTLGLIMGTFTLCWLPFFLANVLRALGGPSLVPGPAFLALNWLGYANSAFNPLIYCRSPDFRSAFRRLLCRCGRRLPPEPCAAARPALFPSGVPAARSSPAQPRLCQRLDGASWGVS

`CCn1cc(S(=O)(=O)N2CCC3(CC2)C[C@H](NC[C@@H](O)COc2cccc(S(C)(=O)=O)c2)CO3)c(=O)c2ccccc21` [Compound 296, 1-ethyl-3-((S)-3-((R)-2-hydroxy-3-(3-(methylsulfonyl)phenoxy)propylamino)-1-oxa-8-azaspiro[4.5]decan-8-ylsulfonyl)quinolin-4(1H)-one] and `CCn1cc(S(=O)(=O)N2CCC3(CC2)C[C@@H](NC[C@H](O)COc2cccc(S(=O)(=O)C4CC4)c2)CO3)c(=O)c2ccc(C)cc21` [Compound 318, 3-((R)-3-((S)-3-(3-(cyclopropylsulfonyl)phenoxy)-2-hydroxypropylamino)-1-oxa-8-azaspiro[4.5]decan-8-ylsulfonyl)-1-ethyl-7-methylquinolin-4(1H)-one] are within 1.5-fold of each other in IC50: 107 nM for the first, 95.2 nM for the second.

First: CS(=O)(=O)Cc1cccc(OC[C@@H](O)CN[C@H]2COC3(CCN(S(=O)(=O)c4ccc5ncccc5c4)CC3)C2)c1 [Compound 336, (S)-1-(3-(methylsulfonylmethyl)phenoxy)-3-((R)-8-(quinolin-6-ylsulfonyl)-1-oxa-8-azaspiro[4.5]decan-3-ylamino)propan-2-ol]
Second: NC(=O)CS(=O)(=O)c1cccc(OC[C@@H](O)CN[C@H]2COC3(CCN(S(=O)(=O)c4ccc5ncccc5c4)CC3)C2)c1 [Compound 137, 2-(3-((S)-2-hydroxy-3-((R)-8-(quinolin-6-ylsulfonyl)-1-oxa-8-azaspiro[4.5]decan-3-ylamino)propoxy)phenylsulfonyl)acetamide]
The IC50 of the first is 3.4-fold lower: 102 nM for the first, 350 nM for the second.

Compared with `CCn1ncc(S(=O)(=O)N2CCC3(CC2)CC(NC[C@H](O)COc2cccc(S(C)(=O)=O)c2)CO3)c1C` (stereo partly drawn) [Compound 58, (2S)-1-(8-(1-ethyl-5-methyl-1H-pyrazol-4-ylsulfonyl)-1-oxa-8-azaspiro[4.5]decan-3-ylamino)-3-(3-(methylsulfonyl)phenoxy)propan-2-ol], `CS(=O)(=O)c1cccc(OC[C@@H](O)CN[C@H]2COC3(CCN(S(=O)(=O)c4c[nH]c5ccccc45)CC3)C2)c1` [Compound 311, (S)-1-((R)-8-(1H-indol-3-ylsulfonyl)-1-oxa-8-azaspiro[4.5]decan-3-ylamino)-3-(3-(methylsulfonyl)phenoxy)propan-2-ol] is 2.5-fold lower in IC50: 109 nM for the first, 43.5 nM for the second.

`NCc1ccc(-c2cc(S(=O)(=O)N3CCC4(CC3)C[C@@H](NC[C@H](O)COc3cccc(S(=O)(=O)C5(CO)CC5)c3)CO4)ccc2F)cc1` [Compound 216, (S)-1-((R)-8-(4′-(aminomethyl)-6-fluorobiphenyl-3-ylsulfonyl)-1-oxa-8-azaspiro[4.5]decan-3-ylamino)-3-(3-(1-(hydroxymethyl)cyclopropylsulfonyl)phenoxy)propan-2-ol] and `CC(C)(CN)c1ccc(-c2cccc(S(=O)(=O)N3CCC4(CC3)C[C@H](NC[C@H](O)COc3cccc(S(=O)(=O)C5(CO)CC5)c3)CO4)c2)cc1` [Compound 180, (S)-1-((S)-8-(4′-(1-amino-2-methylpropan-2-yl)biphenyl-3-ylsulfonyl)-1-oxa-8-azaspiro[4.5]decan-3-ylamino)-3-(3-(1-(hydroxymethyl)cyclopropylsulfonyl)phenoxy)propan-2-ol] are within 1.5-fold of each other in IC50: 26.4 nM for the first, 30.7 nM for the second.

Going from `CCOc1ccc(-c2ccc(CN)cc2)cc1S(=O)(=O)N1CCC2(CC1)C[C@H](NC[C@H](O)COc1cccc(S(=O)(=O)C(C)C)c1)CO2` [Compound 232, (S)-1-((S)-8-(4′-(aminomethyl)-4-ethoxybiphenyl-3-ylsulfonyl)-1-oxa-8-azaspiro[4.5]decan-3-ylamino)-3-(3-(isopropylsulfonyl)phenoxy)propan-2-ol] to `CCOc1ccc(-c2ccc(CN)cc2)cc1S(=O)(=O)N1CCC2(CC1)C[C@@H](NC[C@H](O)COc1cccc(S(=O)(=O)CC(N)=O)c1)CO2` [Compound 179, 2-(3-((S)-3-((R)-8-(4′-(aminomethyl)-4-ethoxybiphenyl-3-ylsulfonyl)-1-oxa-8-azaspiro[4.5]decan-3-ylamino)-2-hydroxypropoxy)phenylsulfonyl)acetamide], the IC50 rises from 16.6 nM to 49.1 nM (3-fold). The first is the more potent here.

Compared with `O=S(=O)(CCO)c1cccc(OC[C@@H](O)CN[C@H]2COC3(CCN(S(=O)(=O)c4cccc(-c5cccnc5)c4)CC3)C2)c1` [Compound 97, (S)-1-(3-(2-hydroxyethylsulfonyl)phenoxy)-3-((R)-8-(3-(pyridin-3-yl)phenylsulfonyl)-1-oxa-8-azaspiro[4.5]decan-3-ylamino)propan-2-ol], `O=S(=O)(CCO)c1cccc(OC[C@@H](O)CN[C@H]2COC3(CCN(S(=O)(=O)c4cccc(-c5cccc(F)n5)c4)CC3)C2)c1` [Compound 134, (S)-1-((R)-8-(3-(6-fluoropyridin-2-yl)phenylsulfonyl)-1-oxa-8-azaspiro[4.5]decan-3-ylamino)-3-(3-(2-hydroxyethylsulfonyl)phenoxy)propan-2-ol] is 3.8-fold lower in IC50: 212 nM for the first, 55.1 nM for the second.

First: Cc1c(Br)cccc1S(=O)(=O)N1CCC2(CC1)C[C@@H](NC[C@H](O)COc1cccc(S(=O)(=O)C3(CO)CC3)c1)CO2 [Compound 192, (S)-1-((R)-8-(3-bromo-2-methylphenylsulfonyl)-1-oxa-8-azaspiro[4.5]decan-3-ylamino)-3-(3-(1-(hydroxymethyl)cyclopropylsulfonyl)phenoxy)propan-2-ol]
Second: O=S(=O)(c1cnc2cccn2c1)N1CCC2(CC1)C[C@@H](NC[C@H](O)COc1cccc(S(=O)(=O)C3(CO)CC3)c1)CO2 [Compound 302, (S)-1-(3-(1-(hydroxymethyl)cyclopropylsulfonyl)phenoxy)-3-((R)-8-(pyrrolo[1,2-a]pyrimidin-3-ylsulfonyl)-1-oxa-8-azaspiro[4.5]decan-3-ylamino)propan-2-ol]
The IC50 of the first is 2.3-fold lower: 298 nM for the first, 696 nM for the second.

`CCOc1ccc(-c2ccc(CN)c(F)c2)cc1S(=O)(=O)N1CCC2(CC1)C[C@H](NC[C@H](O)COc1cccc(S(=O)(=O)C3(CO)CC3)c1)CO2` [Compound 220, (S)-1-((S)-8-(4′-(aminomethyl)-4-ethoxy-3′-fluorobiphenyl-3-ylsulfonyl)-1-oxa-8-azaspiro[4.5]decan-3-ylamino)-3-(3-(1-(hydroxymethyl)cyclopropylsulfonyl)phenoxy)propan-2-ol] and `CC(=O)NCCc1ccc(-c2cccc(S(=O)(=O)N3CCC4(CC3)C[C@H](NC[C@H](O)COc3cccc(S(=O)(=O)C5(CO)CC5)c3)CO4)c2)cc1` [Compound 190, N-(2-(3′-((S)-3-((S)-2-hydroxy-3-(3-(1-(hydroxymethyl)cyclopropylsulfonyl)phenoxy)propylamino)-1-oxa-8-azaspiro[4.5]decan-8-ylsulfonyl)biphenyl-4-yl)ethyl)acetamide] are within 1.5-fold of each other in IC50: 27.5 nM for the first, 31.3 nM for the second.

Compared with `CCC(C)S(=O)(=O)c1cccc(OC[C@@H](O)CNC2COC3(CCN(S(=O)(=O)c4ccc5ccccc5c4)CC3)C2)c1` (stereo partly drawn) [Compound 25, (2S)-1-(3-(sec-butylsulfonyl)phenoxy)-3-(8-(naphthalen-2-ylsulfonyl)-1-oxa-8-azaspiro[4.5]decan-3-ylamino)propan-2-ol], `CS(=O)(=O)c1cccc(OC[C@@H](O)CNC2COC3(CCN(S(=O)(=O)c4cccc(-c5ccncc5)c4)CC3)C2)c1` (stereo partly drawn) [Compound 43, (2S)-1-(3-(methylsulfonyl)phenoxy)-3-(8-(3-(pyridin-4-yl)phenylsulfonyl)-1-oxa-8-azaspiro[4.5]decan-3-ylamino)propan-2-ol] is 1.7-fold lower in IC50: 54.6 nM for the first, 32.4 nM for the second. The second is the more potent here.

`CC(C)Oc1ccc(-c2ccc(CN)cc2)cc1S(=O)(=O)N1CCC2(CC1)C[C@H](NC[C@H](O)COc1cccc(S(=O)(=O)C3CC3)c1)CO2` [Compound 166, (S)-1-((S)-8-(4′-(aminomethyl)-4-isopropoxybiphenyl-3-ylsulfonyl)-1-oxa-8-azaspiro[4.5]decan-3-ylamino)-3-(3-(cyclopropylsulfonyl)phenoxy)propan-2-ol] and `O=c1[nH]c2cc(S(=O)(=O)N3CCC4(CC3)C[C@@H](NC[C@H](O)COc3cccc(S(=O)(=O)C5CC5)c3)CO4)cnc2[nH]1` [Compound 281, 6-((R)-3-((S)-3-(3-(cyclopropylsulfonyl)phenoxy)-2-hydroxypropylamino)-1-oxa-8-azaspiro[4.5]decan-8-ylsulfonyl)-1H-imidazo[4,5-b]pyridin-2(3H)-one] are within 1.5-fold of each other in IC50: 51.2 nM for the first, 57.9 nM for the second.

Going from `O=S(=O)(CC1CC1)c1cccc(OC[C@@H](O)CN[C@H]2COC3(CCN(S(=O)(=O)c4cnc5ccccc5c4)CC3)C2)c1` [Compound 140, (S)-1-(3-(cyclopropylmethylsulfonyl)phenoxy)-3-((R)-8-(quinolin-3-ylsulfonyl)-1-oxa-8-azaspiro[4.5]decan-3-ylamino)propan-2-ol] to `O=S(=O)(CC1CC1)c1cccc(OC[C@@H](O)CN[C@H]2COC3(CCN(S(=O)(=O)c4ccc5ncccc5c4)CC3)C2)c1` [Compound 117, (S)-1-(3-(cyclopropylmethylsulfonyl)phenoxy)-3-((R)-8-(quinolin-6-ylsulfonyl)-1-oxa-8-azaspiro[4.5]decan-3-ylamino)propan-2-ol], the IC50 rises from 45.9 nM to 172 nM (3.7-fold). The first is the more potent here.

First: O=S(=O)(c1cccc(OC[C@@H](O)CN[C@H]2COC3(CCN(S(=O)(=O)c4cnc5c(c4)NCCO5)CC3)C2)c1)C1CC1 [Compound 303, (S)-1-(3-(cyclopropylsulfonyl)phenoxy)-3-((R)-8-(2,3-dihydro-1H-pyrido[2,3-b][1,4]oxazin-7-ylsulfonyl)-1-oxa-8-azaspiro[4.5]decan-3-ylamino)propan-2-ol]
Second: O=S(=O)(CCO)c1cccc(OC[C@@H](O)CN[C@H]2COC3(CCN(S(=O)(=O)c4ccc5c(c4)CCCO5)CC3)C2)c1 [Compound 83, (S)-1-((R)-8-(chroman-6-ylsulfonyl)-1-oxa-8-azaspiro[4.5]decan-3-ylamino)-3-(3-(2-hydroxyethylsulfonyl)phenoxy)propan-2-ol]
The IC50 of the first is 3.1-fold lower: 17.1 nM for the first, 53.5 nM for the second.

Compound `CN1CCOc2ccc(S(=O)(=O)N3CCC4(CC3)C[C@@H](NC[C@H](O)COc3cccc(S(=O)(=O)CCO)c3)CO4)cc21` [Compound 84, (S)-1-(3-(2-hydroxyethylsulfonyl)phenoxy)-3-((R)-8-(4-methyl-3,4-dihydro-2H-benzo[6][1,4]oxazin-6-ylsulfonyl)-1-oxa-8-azaspiro[4.5]decan-3-ylamino)propan-2-ol] has an IC50 of 54.7 nM.
